The record followed here is patent publication US4992455A, “Thiazolidin-4-one derivatives useful for treating diseases caused by platelet activating factor” (Sumitomo Pharmaceuticals Company, Limited, priority 1987, dated 1991).

Assay [1] has as its system fatal effect of PAF on mice. Briefly: Test for inhibition of fatal effect of PAF on mice. In kind it is in vivo, Male ICR mice. Conditions: 10 mg/kg iv, PAF 10 μg/kg iv, 2 hours after PAF. Here is the method: Male ICR mice (perchased from Charles River Co.) aged 4 weeks were anesthetized by injecting subcutaneously 100 mg/kg of Isomital® soda (sodium amobarbital supplied by Nippon Shinyaku Co., Ltd.). After 18 minutes, the mice were injected with a test compound or a solvent through tail veins. The test compound was dissolved in a 0.2 M phosphate buffer solution to a concentration of 1 mg/ml and 10 ml/kg of this solution was injected (dose of test compound 10 mg/kg). Two minutes after this administration, the mice were injected with 10 μg/kg of PAF through tail veins. The PAF was dissolved in physiological saline containing 0.25% of bovine serum albumin to a concentration of 2 μg/ml, and the mice were injected with 5 ml/kg of this solution.
After PAF administration, the mice were observed and the survival rate of mice 2 hours later was determined.

In assay [2] the test system is PAF-induced rabbit platelet aggregation. Briefly: Inhibition of PAF-induced rabbit platelet aggregation (in vitro, platelet-rich plasma). Conditions: Oryctolagus cuniculus, rabbit PRP, 37° C., final PAF concentration 0.005 μ1/ml [sic]. In kind it is cell-based. As for the experimental part: (§1) The inhibition of PAF-induced platelet aggregation was examined by using a platelet-rich plasma (PRP) of rabbit according to the method of Mustard et al. [J.F. Mustard et al., J. Lab. Clin. Med., 64, 548 (1964)], which is an improvement of the method of Born [G.V.R. Born, J. Physiol., London, 162, 67 (1962)]. That is, 80-100 ml of blood per animal was collected from carotid arteries of male rabbits of the Japanese white breed without anesthesia into a polyethylene vessel containing 1/10 the volume of a 3.8% sodium citrate solution. A portion (about 3 ml) of the collected blood was centrifuged at a high speed (11,000 rpm) for 60 seconds, giving a platelet-poor plasma (PPP) as supernatant. The remainder of the blood was centrifuged at a low speed (1000 rpm) for 10 minutes, giving a platelet-rich plasma (PRP) as supernatant.
(§2) The degree of platelet aggregation was determined by nephelometry with an aggregometer (Hematracer, Niko Bioscience Co.) while stirring the PRP at 1000 rpm at 37° C. The platelet aggregation activity was expressed in terms of the light transmittance (%), the value of PRP being taken as 0% and the value of PPP as 100%. A portion (0.2 ml) of the PRP was placed in a glass cuvette containing a silicone-treated stirring iron rod, and 2 µl of dimethylsulfoxide was added. AFter 2 minutes, PAF dissolved in 0.25% BSA physiological saline was added to give a final PAF concentration of 0.005 μ1/ml, and the maximum aggregation was determined. To examine the inhibitory activity of test compounds on the platelet aggregation caused by PAF, 2 µl of a dimethylsulfoxide solution of each test compound was added in place of the dimethylsulfoxide. The percentage inhibition by the test compound of PAF-induced platelet aggregation was calculated according to the following equation and the value of IC50 was determined. [formula]

The subject of assay [3] is PAF-induced human platelet aggregation. Put plainly: Inhibition of PAF-induced human platelet aggregation (in vitro, human PRP). The assay is classed as cell-based. As for the experimental part:
as §1, §2
The inhibition of PAF-induced platelet aggregation was tested by using human PRP. The test was conducted according to the procedure of the above case of rabbit, thereby evaluating the percentages inhibition and IC50 values of test compounds at final PAF concentrations of 0.3 μM and 1 μM.

Assay [4] has as its system PAF-induced blood concentration. Briefly: Test in vivo for inhibition of PAF-induced blood concentration. Conditions: guinea pigs, dose 30 mg/kg iv, PAF iv 2 min later. As for the experimental part: Guinea pigs under anesthesia with urethane (6.25 mg/kg injected into the abdominal cavities) were cannulated through carotid arteries and jugular veins. The carotid artery cannulae were used for blood sampling and the jugular vein cannulae for the intravenous injection of test compound and PAF.
Compound No. 27 was suspended in 10% Nikkol® liquid to a concentration of 3 mg/ml, and 1 ml/kg of the resulting suspension was administered through the jugular vein cannulae. Two minutes later, 1 ml/kg of a 0.1 μg/m1 PAF solution was administered through the jugular vein cannulae. Then, blood was sampled at times. The blood samples were each centrifuged at 11,000 rpm for 5 minutes and the hematocrit values were measured to determine the maximum increase (blood concentration) in hematocrit value.
For a control, 0.5% methyl cellulose solution was administered in place of compound No. 27.
The percentage inhibition of the PAF-induced blood concentration by compound No. 27 was calculated according to the following equation: [formula] The found percentage inhibition was 87%.

Values after ≈ are worked out from the molar mass of the structure shown. Where a name gives a salt, the structure may show the parent alone.

On to `CCCCCCC[C@H]1S[C@H](c2cccnc2)N(CCN(C)C)C1=O` (relative stereo) [compound 175], for which the Survival rate in assay [1] is reported as 60%.

What is called IC50 is the concentration that inhibits the measured activity by half. A lower IC50 goes with greater potency. As for `CCCCCCCCC[C@H]1S[C@@H](c2cccnc2)N(CCN(C)C)C1=O` (relative stereo) [compound 28, 3-(2-Dimethylaminoethyl)-5-(n-nonyl)-2-(3-pyridyl)thiazolidin-4-one], the IC50 in assay [2] is 0.2 µg/mL (≈ 0.53 µM); in assay [3] (PAF concentration 0.3 μM), 1.2 µg/mL (≈ 3.18 µM); in assay [3] (PAF concentration 1 μM), 2.5 µg/mL (≈ 6.62 µM). The “Percentage inhibition of PAF-induced blood concentration (maximum increase in hematocrit value)” value in assay [4] is 92%.

The molecule `C[C@H]1S[C@@H](c2cccnc2)N(C)C1=O` (relative stereo) [compound 182, 3,5-dimethyl-2-(3-pyridyl)thiazolidin-4-one hydrochloride] had a Survival rate in assay [1] of 100%.

In the case of `C[C@H]1S[C@H](c2cccnc2)N(C)C1=O` (relative stereo) [compound 3, 3,5-Dimethyl-2-(3-pyridyl)thiazolidin-4-one], the IC50 in assay [2] was determined as 3.5 µg/mL (≈ 16.8 µM); in assay [3] (PAF concentration 0.3 μM), 6 µg/mL (≈ 28.8 µM). The “Percentage inhibition of PAF-induced blood concentration (maximum increase in hematocrit value)” value in assay [4] turned out to be 58%.

Molecule `CCCCCC[C@H]1S[C@H](c2cccnc2)N(CCN(C)C)C1=O` (relative stereo) [compound 174] showed a Survival rate in assay [1] of 80%.
